The subject of data set [1] is HSV ts A15 transcripts and proteins. In words: E and L gene expression of ts A15 after shift-down (RNase protection, metabolic labeling). The data set is classed as cell-based, herpes simplex virus type 1.
The subject of data set [2] is HSV-1 strain KOS. In words: HSV-1 replication in Vero cells, standard plaque assay. Format: cell-based, herpes simplex virus type 1. Conditions: 0.1 to 10 PFU/cell, 100 μg/ml PAA or 100 μM Rosco, 24 hours.
Data set [3] relates to HSV-1 strain KOS. The data set is classed as cell-based, herpes simplex virus type 1. Conditions: passage 11, 100 μg/ml PAA.
A further data set has as its system HSV ts A15. Format: cell-based, herpes simplex virus type 1.
The next data set relates to HSV-1 DNA replication. Format: cell-based, herpes simplex virus type 1. Conditions: for fold viral DNA replication after release from PAA block: 50 μg/ml CHX alone.
Data set [4] has as its system ICP0 promoter (pWRICP0-CAT). Format: cell-based, herpes simplex virus type 1. Conditions: for effect on virion-induced IE gene expression: cultures treated 24 hours prior to infection; for Fold-induction of CAT activity: mock-infected, value (SEM).
A further data set deals with Vero cells. Description: Toxicity by microscopic observation, Vero cells.
Data set [5] deals with HEL cells.
The subject of data set [6] is HSV-1 strain KOS. Description: HSV-1 replication in HEL cells, standard plaque assay. Format: cell-based, herpes simplex virus type 1. Conditions: 24 hours, 40 μM Rosco, 75 μM iso-Olo, 20 μM Lova, 5 ng/ml staurosporine, 70 μM PD98059.
In data set [7] the test system is HEL cells. In words: Cell-cycle progression by FACS analysis, HEL cells. Format: cell-based. A general note: A flow cytometer gives signals particle by particle.
[8] abbreviates: 400 μg/ml PAA or 100 μM Rosco, 16 or 24 hours post release.
Where [9] appears, read: 3 hours pi, 100 μM Roscovitine, 10 μM Lovastatin, 250 μM K252a.

Read-outs that look alike come from different tables or passages of the source.

Turning to `O=C(O)CP(=O)(O)O` [PAA, phosphonoacetic acid], the “accumulation of ICP8 and TK transcripts” value in [1] (100 μg/ml PAA, 16 hours after shift-down) is reported as “did not significantly alter”. For the same compound, in [1] (setting [8]), the “accumulation of L proteins” value is recorded as “significant inhibition”. In data set [1] (setting [8]), the “levels of E proteins, including ICP8 and TK” value is given as “without a major effect”. For the same compound, the “steady-state levels of ICP8 and TK transcripts” value in [1] (400 μg/ml PAA or 100 μM Rosco, 16 hours after shift-down) is on record as “slight increase”. For the same compound, the “inhibition of HSV replication as a function of multiplicity” value in the data set on HSV-1 strain KOS [2] was “efficiently at multiplicities of 1 PFU/cell or lower”. In the data set with HSV-1 strain KOS [3], the “titers in the presence of drug relative to titers in absence of drug” value is recorded as “approximately 50%”. In addition, the “level of viral DNA relative to cells infected and maintained at the permissive temperature” value in the data set on HSV ts A15 (100 μg/ml PAA or 100 μM Rosco, 24 hours after shift-down) is given as “about 35%”. The “fold viral DNA replication” value is around 50 fold with HSV ts A15 (100 μg/ml PAA or 100 μM Rosco, by 24 hours after shift-down) and “about 5 fold” with HSV ts A15 (100 μg/ml PAA, first 15 hours after shift-down). The “viral DNA replication during 24 hours after release” value in the data set on HSV ts A15 (400 μg/ml PAA) is recorded as “totally inhibited”. The “fold viral DNA replication within 20 hours after release from PAA block” value in the data set on HSV-1 DNA replication is listed as “approximately 7 fold”.

Regarding `COC(=O)[C@@]1(O)C[C@H]2O[C@]1(C)n1c3ccccc3c3c4c(c5c6ccccc6n2c5c31)C(=O)NC4` [K252a], the “effect on virion-induced IE gene expression” value in data set [4] is “no effect”. The “Fold-induction of CAT activity” value in data set [4] (setting [9]) is 0.8 (0.4) fold; in data set [4] (6 hours pi), 1.1 (0.3) fold; in [4] (9 hours pi), 1.0 (0.3) fold.

As to `Cn1cnc2c(NCc3ccccc3)nc(NCCO)nc21` [Olo, Olomoucine], the “concentration tolerated without evidence of toxicity” value with Vero cells is 200 µM.

As for `COc1cccc(-c2cc(=O)c3ccccc3o2)c1N` [PD98059], the “concentrations with obvious cytotoxic effects” value in the data set with HEL cells [5] is recorded as “higher than 70 μM”. In the data set with HSV-1 strain KOS [6], the “effect on HSV replication, single-cycle growth” value (from here on “effect on HSV replication”) was “did not inhibit HSV replication”.

As to `CC[C@H](C)C(=O)O[C@H]1C[C@@H](C)C=C2C=C[C@H](C)[C@H](CC[C@@H]3C[C@@H](O)CC(=O)O3)[C@H]21` [Lova, Lovastatin], the “effect on HSV replication” value in the data set on HSV-1 strain KOS [6] was “failed to block HSV replication”. The “effect on virion-induced IE gene expression” value in [4] is “no effect”. The “Fold-induction of CAT activity” value in data set [4] (setting [9]) was 1.1 (0.6) fold; in data set [4] (6 hours pi) it was 1.0 (0.5) fold; in data set [4] (9 hours pi) it was 1.2 (0.6) fold. Further, in the data set with HEL cells [7] (5 μM Lova), the “cells blocked in G0/G1” value was around 90%. In the data set on HEL cells [7] (20 μM Lova), the “cells arrested in G0/G1” value is “about 90%”.

Consider `C[C@@H]1C[C@@H]([C@H](O)CC2CC(=O)NC(=O)C2)C(=O)[C@@H](C)C1` [CHX, Cycloheximide], for which the entries for the “fold viral DNA replication after release from PAA block” value in the data set with HSV-1 DNA replication (by 20 hours post release) and with HSV-1 DNA replication (first 12 hours post-release) were “approximately 12 fold” and “approximately 6 fold”, respectively.

For the compound `Cn1cnc2nc(NCCO)nc(NCc3ccccc3)c21` [Iso-Olo, IsoOlomoucine], in the data set on HSV-1 strain KOS [6], the “effect on HSV replication” value is given as “no detectable effect”.

Regarding `CN[C@@H]1C[C@H]2O[C@@](C)([C@@H]1OC)n1c3ccccc3c3c4c(c5c6ccccc6n2c5c31)C(=O)NC4` [Staurosporine], the “effect on HSV replication” value with HSV-1 strain KOS [6] is given as “did not block HSV replication significantly”.

These data come from patent US20030099944A1, “Combination therapy involving drugs which target cellular proteins and drugs which target pathogen-encoded proteins” (priority 1998, published 2003).
